Reference: ChEMBL document CHEMBL1201862, “PubChem BioAssay data set” (2004)
Active and inactive are the calls of the source.

Experiments:
Vero [1] = test: viability of Vero cells under compound – cytotoxicity control for flavivirus capping enzyme inhibitors (AID 588742); format: functional; conditions: Chlorocebus sabaeus
[2] = target: T1, Long-chain-fatty-acid--AMP ligase FadD28 (Mycobacterium tuberculosis, UniProt P9WQ59); test: Fluorescence polarization aasay to screen for inhibitors that compete for the binding of FadD28 to a bisubstrate Measured in Biochemical System Using Plate Reader - 2147-01_Inhibitor_Dose_CherryPick_Activity.; format: functional, Mycobacterium tuberculosis H37Rv
T1 sequence (P9WQ59 whole entry): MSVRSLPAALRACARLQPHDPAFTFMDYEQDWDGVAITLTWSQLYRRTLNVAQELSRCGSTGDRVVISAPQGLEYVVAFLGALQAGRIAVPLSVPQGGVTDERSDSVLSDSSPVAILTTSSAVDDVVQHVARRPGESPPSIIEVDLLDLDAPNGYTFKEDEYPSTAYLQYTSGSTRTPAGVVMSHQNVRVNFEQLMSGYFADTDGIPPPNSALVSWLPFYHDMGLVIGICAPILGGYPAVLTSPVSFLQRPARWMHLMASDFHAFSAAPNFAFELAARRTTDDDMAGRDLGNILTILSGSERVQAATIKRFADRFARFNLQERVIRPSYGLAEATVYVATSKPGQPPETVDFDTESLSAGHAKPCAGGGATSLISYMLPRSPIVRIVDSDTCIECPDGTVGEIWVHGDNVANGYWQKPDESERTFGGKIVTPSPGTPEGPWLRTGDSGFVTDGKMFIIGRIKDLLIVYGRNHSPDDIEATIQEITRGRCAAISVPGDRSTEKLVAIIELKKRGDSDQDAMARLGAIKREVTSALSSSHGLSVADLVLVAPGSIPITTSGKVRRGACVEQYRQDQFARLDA

[3] = target: T2, DNA repair protein RAD52 homolog (Homo sapiens, UniProt P43351); format: functional, biochemical
T2 sequence (P43351 whole entry): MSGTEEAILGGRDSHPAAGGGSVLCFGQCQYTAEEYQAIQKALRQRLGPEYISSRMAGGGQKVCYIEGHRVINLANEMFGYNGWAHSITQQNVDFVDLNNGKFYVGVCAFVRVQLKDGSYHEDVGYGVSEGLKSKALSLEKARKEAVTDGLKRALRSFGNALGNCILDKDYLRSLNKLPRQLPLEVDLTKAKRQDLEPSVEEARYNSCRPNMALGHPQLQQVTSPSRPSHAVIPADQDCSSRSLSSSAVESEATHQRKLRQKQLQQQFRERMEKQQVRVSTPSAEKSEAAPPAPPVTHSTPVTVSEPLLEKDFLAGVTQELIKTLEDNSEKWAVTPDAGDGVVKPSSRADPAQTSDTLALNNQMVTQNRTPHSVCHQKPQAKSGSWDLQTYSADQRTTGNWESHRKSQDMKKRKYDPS

[4] = target: T3, Mannose-6-phosphate isomerase (Homo sapiens, UniProt P34949); test: MPI inhibition at elevated mannose 6-phosphate – biochemical, fluorescence intensity, high mannose 6-phosphate, primary screen (AID 1220)
T3 sequence (P34949 whole entry): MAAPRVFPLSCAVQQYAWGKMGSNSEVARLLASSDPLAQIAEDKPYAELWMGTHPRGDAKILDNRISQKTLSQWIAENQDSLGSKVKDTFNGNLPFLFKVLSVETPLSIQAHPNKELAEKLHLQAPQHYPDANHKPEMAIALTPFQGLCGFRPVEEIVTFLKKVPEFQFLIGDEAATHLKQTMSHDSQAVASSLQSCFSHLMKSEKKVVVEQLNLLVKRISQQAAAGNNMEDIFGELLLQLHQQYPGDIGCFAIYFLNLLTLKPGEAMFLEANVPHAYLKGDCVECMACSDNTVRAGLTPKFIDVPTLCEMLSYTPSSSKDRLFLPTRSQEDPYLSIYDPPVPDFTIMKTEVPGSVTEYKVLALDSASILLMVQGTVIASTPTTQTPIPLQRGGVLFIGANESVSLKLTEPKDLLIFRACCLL

[5] = target: Eukaryotic translation initiation factor 4E (Mus musculus, UniProt P63073); test: blockers of eIF4G binding by eIF4E – biochemical, TR-FRET, dose response (AID 855); format: functional;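 also: potency for disrupting eIF4E binding to eIF4GI seen as loss of FRET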
[6] = target: Voltage-dependent T-type calcium channel subunit alpha-1H (Homo sapiens, UniProt O95180); format: functional;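 also: channel activity triggered by adding a high calcium stimulation buffer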
[7] = target: T4, Short transient receptor potential channel 4 (Mus musculus, UniProt Q9QUQ5); test: calcium entry via TRPC4 opening agents – cell-based, HEK293 TRPC4/mu-opioid, Fluo-4 calcium, dose response (AID 434937); format: functional
T4 sequence (Q9QUQ5 whole entry): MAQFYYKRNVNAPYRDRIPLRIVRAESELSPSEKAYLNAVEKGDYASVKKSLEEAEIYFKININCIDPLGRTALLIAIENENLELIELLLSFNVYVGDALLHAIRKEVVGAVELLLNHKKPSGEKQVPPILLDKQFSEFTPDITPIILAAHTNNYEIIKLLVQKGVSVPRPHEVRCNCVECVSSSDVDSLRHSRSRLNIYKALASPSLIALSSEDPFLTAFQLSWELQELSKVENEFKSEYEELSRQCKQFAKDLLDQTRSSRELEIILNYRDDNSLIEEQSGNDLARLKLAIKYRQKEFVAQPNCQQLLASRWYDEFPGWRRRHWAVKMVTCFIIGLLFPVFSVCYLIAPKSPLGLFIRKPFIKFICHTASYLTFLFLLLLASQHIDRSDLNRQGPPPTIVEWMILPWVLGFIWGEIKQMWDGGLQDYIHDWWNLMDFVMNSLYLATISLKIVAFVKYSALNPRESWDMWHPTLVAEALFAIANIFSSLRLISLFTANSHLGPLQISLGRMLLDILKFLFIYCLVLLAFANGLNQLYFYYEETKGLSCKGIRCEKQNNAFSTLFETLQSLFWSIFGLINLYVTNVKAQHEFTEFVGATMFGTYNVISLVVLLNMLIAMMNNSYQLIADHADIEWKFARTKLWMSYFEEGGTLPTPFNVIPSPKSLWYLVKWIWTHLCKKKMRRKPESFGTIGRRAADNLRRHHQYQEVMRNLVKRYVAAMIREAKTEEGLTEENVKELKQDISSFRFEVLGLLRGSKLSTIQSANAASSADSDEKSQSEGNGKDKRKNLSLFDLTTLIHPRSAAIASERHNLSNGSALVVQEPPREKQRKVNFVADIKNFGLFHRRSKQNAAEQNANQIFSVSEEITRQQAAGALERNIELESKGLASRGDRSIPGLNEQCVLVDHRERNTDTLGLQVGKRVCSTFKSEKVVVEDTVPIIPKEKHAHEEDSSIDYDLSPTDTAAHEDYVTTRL

Estrogen receptor beta = Estrogen receptor beta (Homo sapiens, UniProt Q92731);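 also: recombinant ER-beta bound to coactivator SRC1 peptide in presence of estradiol agonist; inhibitors block coactivator peptide binding and lower the FRET signal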
SUMO-activating enzyme = SUMO-activating enzyme (Homo sapiens, UniProt Q9UBT2); test: blockers of UBC9-mediated SUMO conjugation – biochemical, AlphaScreen, SUMOylation inhibitor project, confirmation (AID 2018); format: functional
Vero [8] = test: cells; format: functional; conditions: Chlorocebus sabaeus
Vero [9] = test: cells; format: functional, cell-based; conditions: Chlorocebus sabaeus
[10] = viability of uninfected HEp-2 cells – cell-based, HTS, cytotoxicity control for RSV inhibitor project, dose response (AID 2410); format: functional; conditions: human respiratory syncytial virus
[11] = target: T5, Histone-lysine N-methyltransferase NSD2 (Homo sapiens, UniProt O96028); format: biochemical
T5 sequence (O96028 whole entry): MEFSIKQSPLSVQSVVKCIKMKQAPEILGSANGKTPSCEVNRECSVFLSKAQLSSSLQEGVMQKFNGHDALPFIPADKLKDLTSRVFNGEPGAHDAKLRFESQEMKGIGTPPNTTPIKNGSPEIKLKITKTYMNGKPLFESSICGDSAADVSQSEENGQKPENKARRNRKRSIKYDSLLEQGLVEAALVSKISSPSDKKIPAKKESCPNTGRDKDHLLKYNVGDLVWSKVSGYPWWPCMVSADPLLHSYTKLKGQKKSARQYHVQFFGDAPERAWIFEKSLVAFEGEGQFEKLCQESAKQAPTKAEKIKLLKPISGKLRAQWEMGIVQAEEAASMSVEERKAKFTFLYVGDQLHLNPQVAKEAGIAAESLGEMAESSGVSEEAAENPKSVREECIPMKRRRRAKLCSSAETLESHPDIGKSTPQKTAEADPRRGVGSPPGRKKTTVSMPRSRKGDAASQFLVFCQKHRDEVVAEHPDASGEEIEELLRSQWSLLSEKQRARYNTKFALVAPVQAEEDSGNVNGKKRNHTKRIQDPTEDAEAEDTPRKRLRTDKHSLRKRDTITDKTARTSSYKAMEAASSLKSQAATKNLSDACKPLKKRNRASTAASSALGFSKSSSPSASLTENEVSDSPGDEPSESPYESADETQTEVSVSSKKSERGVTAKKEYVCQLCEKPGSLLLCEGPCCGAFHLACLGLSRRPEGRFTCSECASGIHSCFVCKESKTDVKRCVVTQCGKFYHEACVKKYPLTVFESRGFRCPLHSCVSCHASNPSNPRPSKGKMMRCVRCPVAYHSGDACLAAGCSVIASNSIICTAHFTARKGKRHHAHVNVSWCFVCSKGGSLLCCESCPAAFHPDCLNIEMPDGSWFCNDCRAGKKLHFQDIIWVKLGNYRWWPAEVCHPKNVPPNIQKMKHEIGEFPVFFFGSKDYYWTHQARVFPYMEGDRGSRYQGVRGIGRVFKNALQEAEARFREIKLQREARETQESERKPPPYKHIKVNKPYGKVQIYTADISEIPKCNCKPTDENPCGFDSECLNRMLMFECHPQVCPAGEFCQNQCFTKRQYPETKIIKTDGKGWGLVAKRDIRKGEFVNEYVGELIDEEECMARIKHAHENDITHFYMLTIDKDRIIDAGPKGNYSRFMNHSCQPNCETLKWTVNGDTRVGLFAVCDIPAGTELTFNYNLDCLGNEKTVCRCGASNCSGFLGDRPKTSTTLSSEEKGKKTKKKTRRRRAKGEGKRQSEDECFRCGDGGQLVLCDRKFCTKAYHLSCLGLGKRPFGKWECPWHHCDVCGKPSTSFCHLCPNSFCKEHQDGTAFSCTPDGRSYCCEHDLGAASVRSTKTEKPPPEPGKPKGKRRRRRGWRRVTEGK

[12] = target: FAD-linked sulfhydryl oxidase ALR (Homo sapiens, UniProt P55789); test: ALR-catalysed DTT oxidation blockers – biochemical, H2O2 detection, luminescence, cherry-pick, dose response (AID 493248)
SN12K1 = test: cells; format: functional; conditions: Homo sapiens
P388/ADR = test: cells; format: functional; conditions: Mus musculus
P388 = test: cells; format: functional; conditions: Mus musculus

Estrogen receptor beta, sequence (Q92731 whole entry): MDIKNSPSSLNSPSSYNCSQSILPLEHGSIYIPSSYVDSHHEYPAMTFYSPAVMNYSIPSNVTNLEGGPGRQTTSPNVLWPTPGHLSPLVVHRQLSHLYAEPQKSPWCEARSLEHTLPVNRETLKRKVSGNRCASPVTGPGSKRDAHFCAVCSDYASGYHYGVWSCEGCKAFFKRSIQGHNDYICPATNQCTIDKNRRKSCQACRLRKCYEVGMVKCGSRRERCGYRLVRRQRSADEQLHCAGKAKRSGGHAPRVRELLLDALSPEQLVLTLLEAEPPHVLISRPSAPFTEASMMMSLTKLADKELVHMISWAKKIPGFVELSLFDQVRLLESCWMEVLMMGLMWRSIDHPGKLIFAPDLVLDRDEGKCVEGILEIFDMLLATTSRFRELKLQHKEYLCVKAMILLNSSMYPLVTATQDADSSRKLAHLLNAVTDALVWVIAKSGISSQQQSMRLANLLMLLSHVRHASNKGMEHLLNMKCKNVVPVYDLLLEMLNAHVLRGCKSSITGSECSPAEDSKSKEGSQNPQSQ
Eukaryotic translation initiation factor 4E, sequence (P63073 whole entry): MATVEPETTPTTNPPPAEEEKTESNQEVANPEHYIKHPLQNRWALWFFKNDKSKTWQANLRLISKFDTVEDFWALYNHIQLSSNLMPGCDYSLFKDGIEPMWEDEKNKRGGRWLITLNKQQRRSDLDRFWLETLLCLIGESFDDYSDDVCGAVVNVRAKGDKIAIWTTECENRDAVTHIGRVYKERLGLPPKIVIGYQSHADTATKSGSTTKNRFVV
SUMO-activating enzyme, sequence (Q9UBE0 whole entry): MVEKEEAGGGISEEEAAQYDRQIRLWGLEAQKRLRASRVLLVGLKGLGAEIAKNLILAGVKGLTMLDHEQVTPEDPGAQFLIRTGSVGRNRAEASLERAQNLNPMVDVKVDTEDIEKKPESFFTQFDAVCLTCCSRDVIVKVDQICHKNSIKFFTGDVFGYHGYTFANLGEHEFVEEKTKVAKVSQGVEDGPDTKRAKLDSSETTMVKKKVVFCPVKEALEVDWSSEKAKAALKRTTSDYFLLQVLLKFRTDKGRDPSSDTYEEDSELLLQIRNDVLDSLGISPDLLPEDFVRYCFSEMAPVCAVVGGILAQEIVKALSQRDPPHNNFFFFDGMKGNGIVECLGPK
SUMO-activating enzyme, sequence (Q9UBT2 whole entry): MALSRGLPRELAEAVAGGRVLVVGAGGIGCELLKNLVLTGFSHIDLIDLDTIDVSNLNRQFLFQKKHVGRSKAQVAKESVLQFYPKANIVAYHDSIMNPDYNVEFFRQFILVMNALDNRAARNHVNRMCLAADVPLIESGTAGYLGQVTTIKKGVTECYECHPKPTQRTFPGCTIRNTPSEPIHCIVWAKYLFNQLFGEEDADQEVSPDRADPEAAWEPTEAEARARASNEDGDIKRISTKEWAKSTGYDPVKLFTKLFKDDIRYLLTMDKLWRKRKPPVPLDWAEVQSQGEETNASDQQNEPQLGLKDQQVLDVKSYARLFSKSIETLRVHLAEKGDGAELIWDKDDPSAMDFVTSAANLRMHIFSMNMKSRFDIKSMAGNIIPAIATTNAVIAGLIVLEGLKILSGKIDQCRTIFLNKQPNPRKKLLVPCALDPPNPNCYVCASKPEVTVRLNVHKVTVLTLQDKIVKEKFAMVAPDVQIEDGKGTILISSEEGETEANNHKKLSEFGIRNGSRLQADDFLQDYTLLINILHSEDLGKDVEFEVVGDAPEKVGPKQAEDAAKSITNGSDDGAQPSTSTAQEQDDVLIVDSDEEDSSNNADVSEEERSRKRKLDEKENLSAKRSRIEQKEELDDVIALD
FAD-linked sulfhydryl oxidase ALR, sequence (P55789 whole entry): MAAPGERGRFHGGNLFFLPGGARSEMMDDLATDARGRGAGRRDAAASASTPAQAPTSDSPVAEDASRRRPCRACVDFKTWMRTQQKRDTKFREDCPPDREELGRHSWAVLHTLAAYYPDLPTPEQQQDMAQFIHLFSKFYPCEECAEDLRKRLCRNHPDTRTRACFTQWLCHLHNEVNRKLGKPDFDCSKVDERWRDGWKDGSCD
Voltage-dependent T-type calcium channel subunit alpha-1H, sequence (O95180 whole entry): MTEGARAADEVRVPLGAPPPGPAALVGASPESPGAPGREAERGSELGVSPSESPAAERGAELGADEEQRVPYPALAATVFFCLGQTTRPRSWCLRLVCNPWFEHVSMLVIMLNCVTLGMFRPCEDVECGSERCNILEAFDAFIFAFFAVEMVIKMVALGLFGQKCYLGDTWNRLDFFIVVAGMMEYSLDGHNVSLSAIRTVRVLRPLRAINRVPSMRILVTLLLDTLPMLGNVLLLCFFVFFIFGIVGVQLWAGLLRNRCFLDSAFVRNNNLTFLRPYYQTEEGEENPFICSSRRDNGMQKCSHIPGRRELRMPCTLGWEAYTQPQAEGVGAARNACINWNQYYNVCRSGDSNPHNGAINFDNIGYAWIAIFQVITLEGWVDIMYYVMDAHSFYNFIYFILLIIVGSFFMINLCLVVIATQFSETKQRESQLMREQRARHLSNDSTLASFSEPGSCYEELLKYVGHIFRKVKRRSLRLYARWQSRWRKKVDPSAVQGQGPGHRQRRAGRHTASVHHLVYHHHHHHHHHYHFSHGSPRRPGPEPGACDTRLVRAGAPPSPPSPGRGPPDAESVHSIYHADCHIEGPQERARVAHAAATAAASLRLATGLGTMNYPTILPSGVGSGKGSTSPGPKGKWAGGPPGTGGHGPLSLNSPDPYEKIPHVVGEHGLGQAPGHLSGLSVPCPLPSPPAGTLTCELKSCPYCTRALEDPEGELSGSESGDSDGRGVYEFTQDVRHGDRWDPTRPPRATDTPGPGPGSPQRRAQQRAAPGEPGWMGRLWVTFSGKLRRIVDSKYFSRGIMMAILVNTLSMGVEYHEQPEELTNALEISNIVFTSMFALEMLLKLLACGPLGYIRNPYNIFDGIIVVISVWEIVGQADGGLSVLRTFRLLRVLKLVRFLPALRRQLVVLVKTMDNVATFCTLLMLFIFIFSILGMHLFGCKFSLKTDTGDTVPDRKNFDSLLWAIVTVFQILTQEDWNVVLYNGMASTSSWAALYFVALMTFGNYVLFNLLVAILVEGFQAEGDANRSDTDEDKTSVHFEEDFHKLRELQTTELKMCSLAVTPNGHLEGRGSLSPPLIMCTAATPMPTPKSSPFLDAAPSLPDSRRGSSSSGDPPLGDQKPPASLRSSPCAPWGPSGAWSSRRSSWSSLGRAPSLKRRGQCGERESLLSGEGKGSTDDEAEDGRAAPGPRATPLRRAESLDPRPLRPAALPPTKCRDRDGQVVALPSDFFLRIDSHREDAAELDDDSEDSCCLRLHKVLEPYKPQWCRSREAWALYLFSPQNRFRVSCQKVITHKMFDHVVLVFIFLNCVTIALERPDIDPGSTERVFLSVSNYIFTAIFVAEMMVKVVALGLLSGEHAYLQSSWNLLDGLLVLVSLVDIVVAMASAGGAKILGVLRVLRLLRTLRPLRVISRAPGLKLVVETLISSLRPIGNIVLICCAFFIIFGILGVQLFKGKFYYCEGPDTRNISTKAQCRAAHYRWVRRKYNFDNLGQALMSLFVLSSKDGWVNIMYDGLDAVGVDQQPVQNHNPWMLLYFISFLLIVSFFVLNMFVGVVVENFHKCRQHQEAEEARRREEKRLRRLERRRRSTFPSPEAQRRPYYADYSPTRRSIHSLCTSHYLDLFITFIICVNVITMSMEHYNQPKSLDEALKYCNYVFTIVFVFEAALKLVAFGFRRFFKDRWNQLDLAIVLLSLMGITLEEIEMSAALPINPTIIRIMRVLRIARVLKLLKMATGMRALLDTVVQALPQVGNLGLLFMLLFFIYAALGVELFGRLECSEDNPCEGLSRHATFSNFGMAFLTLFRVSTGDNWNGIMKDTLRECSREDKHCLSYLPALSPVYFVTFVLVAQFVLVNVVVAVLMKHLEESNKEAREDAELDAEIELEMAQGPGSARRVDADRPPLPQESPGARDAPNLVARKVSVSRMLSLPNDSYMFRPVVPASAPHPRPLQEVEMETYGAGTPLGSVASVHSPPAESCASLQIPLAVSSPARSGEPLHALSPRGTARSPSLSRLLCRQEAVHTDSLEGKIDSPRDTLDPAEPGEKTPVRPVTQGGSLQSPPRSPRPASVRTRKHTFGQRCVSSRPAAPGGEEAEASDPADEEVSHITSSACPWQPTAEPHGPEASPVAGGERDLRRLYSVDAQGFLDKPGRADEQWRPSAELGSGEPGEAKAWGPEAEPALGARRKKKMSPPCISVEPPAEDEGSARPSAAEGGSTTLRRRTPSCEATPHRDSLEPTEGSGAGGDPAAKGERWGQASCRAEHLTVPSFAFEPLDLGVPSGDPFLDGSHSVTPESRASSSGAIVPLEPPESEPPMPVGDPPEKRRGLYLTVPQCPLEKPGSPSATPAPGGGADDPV

In the case of `O=C(Nc1ccc2c(c1)CCCN2C(=O)c1cccs1)c1ccccc1`, the CC50 (Vero [1]) is reported as > 40 µM (active).
In the case of `CCc1cccc(NC(=O)CN2C(=O)NC3(CCCCCCC3)C2=O)c1`, the AC50 [2] is reported as > 100 µM (inactive).
For `CCCCN=C(S)Nc1ccc2nc(N3CCN(CC)CC3)cc(C)c2c1`, the AC50 [3] was 25.9 µM (active).
For `COC(=O)C1=C(C(=O)OC)SC(=C2C(=S)C(C)(C)N(C(=O)C3CC3)c3ccccc32)S1`, the IC50 [4] was 6.47 µM (active).
In the case of `Cc1cccc(S(=O)(=O)Nc2nc3ccccc3nc2Nc2cccc(C(=O)O)c2)c1`, the AC50 [2] is reported as 91.1 µM (active).
In the case of `O=S(=O)(NCCc1ccc(F)cc1)c1cccc2cccnc12`, the IC50 [5] is reported as 50 µM (inactive).
For `O=C(CS(=O)(=O)Cc1ccccc1)Nc1ccc(S(=O)(=O)N2CCCCCC2)cc1`, the AC50 [2] was 80.8 µM (active) and the EC50 [6] was 4.62 µM (active).
For `COc1ccc(C(c2sc3nc(C)nn3c2O)N2CCc3ccccc3C2)cc1` (stereo not given), the IC50 [4] was 9.88 µM (active).
In the case of `Cc1cc(-c2nn(-c3ccccc3F)cc2CNCCc2c[nH]cn2)c(C)s1`, the EC50 [7] is reported as 0.0427 µM (active).
For `O=C(NCc1ccco1)C1(S(=O)(=O)c2ccc(Cl)cc2)CC1`, the IC50 (Estrogen receptor beta) was > 50 µM (not active).
With `CC1CCCN(c2nc3ccccc3nc2C(C#N)S(=O)(=O)c2ccccc2)C1` (stereo not given) the IC50 (SUMO-activating enzyme) was 22.1 µM (active).
For `Cc1ccc2cc(C#N)c(NCCNC(S)=NCCCN(C)C)nc2c1C`, the CC50 (Vero [8]) was 15.1 µM (active), the IC50 (Vero [9]) was > 25 µM (active) and the AC50 [3] was 16.9 µM (active). For the same compound, the CC50 [10] was 13.2 µM (active).
With `CCN(CC)CCN=C(S)Nc1ccc2nc(N3CCCC3)cc(C)c2c1` the AC50 [11] was > 20 µM (inactive) and the AC50 [3] was 3.9 µM (active).
With `CCOC(=O)CCC(NC(=O)c1ccc(NCN2C(=O)CCC2=O)cc1)C(=O)OCC` (stereo not given) the IC50 (Estrogen receptor beta) was > 50 µM (not active).
In the case of `N=C1/C(=C/c2cccn2Cc2ccc(Cl)cc2)C(=O)N=C2SC=CN12`, the IC50 (SUMO-activating enzyme) is reported as 47.6 µM (active).
In the case of `O=C(CN1C(=O)NC2(CCCc3ccccc32)C1=O)c1ccc(Br)cc1` (stereo not given), the AC50 [2] is reported as > 100 µM (inactive).
For `O=C(c1cccn2c(=O)c3cc(Cl)ccc3nc12)N1CCN(Cc2ccc3c(c2)OCO3)CC1`, the IC50 [5] was > 64 µM (inactive).
For `Cc1ccc(C(=O)Nc2nc(-c3cccnc3)cs2)o1`, the IC50 (Estrogen receptor beta) was 21.2 µM (active).
For `O=C(O)C1C2C=CC(C2)C1C(=O)NC1CCN(Cc2ccccc2)CC1` (stereo not given), the EC50 [7] was 5.31 µM (active).
With `O=C(O)c1ccc2c(c1)C(=O)N(c1ccc(Nc3ccccc3)cc1)C2=O` the AC50 [2] was > 100 µM (inactive) and the AC50 [12] was 25.8 µM (active).
In the case of `CCN1CCCC1CNC(=O)c1cc2c(OC)cccc2[nH]1` (stereo not given), the EC50 [7] is reported as 6.68 µM (active).
In the case of `O=C(OCC1CC(c2ccccn2)=NO1)c1ccc(Br)cc1` (stereo not given), the IC50 [5] is reported as > 64 µM (inactive).
With `Nc1ncnc2c1ncn2[C@@H]1O[C@H](CNCc2ccc(OCC(=O)Nc3ccccn3)cc2)[C@@H](O)[C@H]1O` the AC50 [2] was > 100 µM (inactive).
With `O=C(N[C@@H](c1ccccc1)[C@@H](O)C(=O)OCc1ccc2c(c1)OCO2)c1ccccc1` the GI50 (SN12K1) was > 100 µM (inactive), the GI50 (P388/ADR) was 72.6 µM (inactive) and the GI50 (P388) was 64.7 µM (inactive).
With `CC1C(=O)CC(c2cccs2)N(N=O)C1c1cccs1` (stereo not given) the GI50 (SN12K1) was 57.8 µM (inactive), the GI50 (P388/ADR) was 17.3 µM (inactive) and the GI50 (P388) was 20.4 µM (inactive).
